Source: patent US6043261A, “Pyrrolodino imidines useful as nitric oxide synthase inhibitors” (G. D. Searle & Co., priority 1998, dated 2000)
Counter-ions that a name gives are not always drawn. Like-named read-outs stand apart in the source and are kept apart here.

Experiments:
[1] = target: T1, human neuronal constitutive NOS (hncNOS) (Homo sapiens, UniProt P29475); assay: biochemical; conditions: recombinant human neuronal constitutive NOS, 37° C., 15 minutes, calmodulin 40-100 nM
T1 construct: made in house; host or cells: insect cells, baculovirus vector
Procedure: (§1) Citrulline Assay for Nitric Oxide Synthase
(§2) Nitric oxide synthase activity was measured by monitoring the conversion of L-[2,3-3H]-arginine to L-[2,3-3H]-citrulline (1,2). The cDNA for human inducible NOS (hiNOS) was isolated from a lcDNA library made from RNA extracted from a colon sample from a patient with ulcerative colitis; human endothelial constitutive NOS (hecNOS) was isolated from a lcDNA library made from RNA extracted from human umbilical vein endothelial cells (HUVEC); and human neuronal constitutive NOS (hncNOS) was isolated from a lcDNA library made from RNA extracted from human cerebellum from a cadaver. The recombinant enzymes were expressed in insect cells using a baculovirus vector. Enzyme activity was isolated from cell extracts and partially purified by DEAE-Sepharose chromatography (2). […] For constitutive NOS, calmodulin was included at a final concentration of 40-100 nM. Following incubation at 37° C. for 15 minutes, the reaction was terminated by addition of 300 μL cold buffer containing 10 mM EGTA, 100 mM HEPES (pH5.5) and 1.0 mM L-citrulline. The [3H]-citrulline was separated by chromatography on Dowex 50W X-8 cation exchange resin and radioactivity quantified with a liquid scintillation counter.

RAW cell miNOS = target: T2, RAW cell miNOS (Mus musculus, UniProt P29477); assay: Raw Cell Nitrite Assay; type: cell-based; conditions: RAW 264.7 cells, LPS-induced, L-arginine 30 μM, nitrite production 1 h at 37° C.
T2 construct: in the presence of LPS to induce NOS; endogenous in cells; host or cells: RAW 264.7 cells, LPS-induced
Procedure: RAW 264.7 cells are plated to confluency on a 96-well tissue culture plate grown overnight (17 h) in the presence of LPS to induce NOS. […] The media is removed from each well and the cells are washed twice with Krebs-Ringers-Hepes (25 mM, pH 7.4) with 2 mg/ml glucose. The cells are then placed on ice and incubated with 50 μL of buffer containing L-arginine (30 μM) ± inhibitors for 1 h. The assay is initiated by warming the plate to 37° C. in a water bath for 1 h. […] To terminate the cellular assay, the plate of cells is placed on ice and the nitrite-containing buffer removed and analyzed for nitrite using a previously published fluorescent determination for nitrite. All values are the average of triplicate wells and are compared to a background-subtracted induced set of cells (100% value).

[2] = target: T3, human inducible NOS (hiNOS) (Homo sapiens, UniProt P35228); assay: Citrulline Assay for Nitric Oxide Synthase, hiNOS; type: biochemical; conditions: recombinant human inducible NOS, 37° C., 15 minutes
T3 construct: made in house; host or cells: insect cells, baculovirus vector
Procedure: as §1, §2

[3] = target: T4, human endothelial constitutive NOS (hecNOS) (Homo sapiens, UniProt P29474); assay: Citrulline Assay for Nitric Oxide Synthase, hecNOS; type: biochemical; conditions: recombinant human endothelial constitutive NOS, 37° C., 15 minutes, calmodulin 40-100 nM
T4 construct: made in house; host or cells: insect cells, baculovirus vector
Procedure: as §1, §2

Plasma Nitrites/Nitrates = assay: In Vivo Assay: plasma nitrites/nitrates, Endotoxin in Rat Model; design: species or system Rats; conditions: 10 mg/kg p.o., 1 hour prior to LPS 10 mg/kg i.p., plasma nitrites 5 hours post-treatment
Procedure: In Vivo Assay Rats were treated with an intraperitoneal injection of 10 mg/kg of endotoxin (LPS) with or without oral administration of the nitric oxide synthase inhibitors administered 1 hour prior to LPS. Plasma nitrites were measured 5 hours post-treatment.

## N=C1CCCCC(CC2CO2)N1 (stereo not shown) [Example 21, Hexahydro-7-[(oxiran-2-yl)methyl]-1H-azepin-2-imine, Monohydrochloride]
[1]; read-out: IC50 hncNOS
  IC50: 8.4 µM
RAW cell miNOS; read-out: IC50 RAW cell miNOS
  IC50: 28 µM

## N=C1CCCCC(Cc2ccccc2)N1 (single isomer, unassigned; (-)) [Example 16, (-)-hexahydro-7-(phenylmethyl)-1H-azepin-2-imine, Monohydrochloride]
[2]
  IC50: 3.6 µM
[3]
  IC50: 599 µM
[1]; read-out: IC50 hncNOS
  IC50: 14 µM
RAW cell miNOS; read-out: IC50 RAW cell miNOS
  IC50: 1.8 µM

## N=C1CCCC(CC2CCCCC2)N1 (stereo not shown) [Example 95, 6-(cyclohexylmethyl)piperidin-2-imine, Monohydrochloride]
[2]
  IC50: 5.9 µM
[3]
  IC50: 375 µM
[1]; read-out: IC50 hncNOS
  IC50: 28 µM

## N=C1CCCCC(Cc2ccccc2)N1 (single isomer, unassigned; (+)) [Example 14, (+)-hexahydro-7-(phenylmethyl)-1H-azepin-2-imine, Monohydrochloride]
[2]
  IC50: 62 µM
[3]
  IC50: 651 µM
[1]; read-out: IC50 hncNOS
  IC50: 30 µM
RAW cell miNOS; read-out: IC50 RAW cell miNOS
  IC50: 170 µM

## N=C1CCCCC(CC2CCCCC2)N1 (stereo not shown) [Example 9, 7-(cyclohexylmethyl)hexahydro-1H-azepin-2-imine, Monohydrochloride]
[2]
  IC50: 9.7 µM
[3]
  IC50: 575 µM
[1]; read-out: IC50 hncNOS
  IC50: 74 µM
RAW cell miNOS; read-out: IC50 RAW cell miNOS
  IC50: > 100 µM

## Cl.N=C1CCCCC(Cc2ccccc2)N1 (stereo not shown) [Example 5, Hexahydro-7-(phenylmethyl)-1H-azepin-2-imine, Monohydrochloride]
[2]
  IC50: 6.2 µM
[3]
  IC50: 792 µM
[1]; read-out: IC50 hncNOS
  IC50: 15 µM
RAW cell miNOS; read-out: IC50 RAW cell miNOS
  IC50: 66 µM
Plasma Nitrites/Nitrates
  % Inhibition of Plasma Nitrites/Nitrates: 37%

## N=C1CCCCC(CC2CC(c3ccccc3)=NO2)N1 (stereo not shown) [Example 191, 7-[(4,5-dihydro-3-phenylisoxazolyl-5-yl)methyl]hexahydro-1H-azepine-2-imine, Monotrifluoroacetic Acid Salt]
RAW cell miNOS; read-out: IC50 RAW cell miNOS
  IC50: 45 µM

## NC1=NC(Cc2ccccc2)CCC1 (stereo not shown) [Example 94, 6-(phenylmethyl)piperidin-2-imine, Monohydrochloride]
[1]; IC50 hncNOS
  IC50: 0.71 µM
RAW cell miNOS; IC50 RAW cell miNOS
  IC50: 7.9 µM

## N=C1CCCCC(CCCc2ccccc2)N1 (stereo not shown) [Example 37, Hexahydro-7-(3-phenylpropyl)-1H-azepin-2-imine, Monohydrochloride]
[2]
  IC50: 19 µM
[3]
  IC50: 836 µM
[1]; read-out: IC50 hncNOS
  IC50: 118 µM
RAW cell miNOS; read-out: IC50 RAW cell miNOS
  IC50: 80 µM

## C[C@@H]1CC(=N)N[C@H]1Cc1ccccc1 (relative stereo) [Example 64, (±) (trans) 4-methyl-5-(phenylmethyl)pyrrolidin-2-imine, Monohydrochloride]
[2]
  IC50: 3 µM
[3]
  IC50: 458 µM
[1]; read-out: IC50 hncNOS
  IC50: 8.3 µM
RAW cell miNOS; read-out: IC50 RAW cell miNOS
  IC50: 5.4 µM
Plasma Nitrites/Nitrates
  % Inhibition of Plasma Nitrites/Nitrates: 35%

## N=C1CCCCC(C/C=C/c2ccccc2)N1 (stereo not shown) [Example 34, Hexahydro-7-(3-phenyl-2-propenyl)-1H-azepin-2-imine, Monohydrochloride]
[2]
  IC50: 8.1 µM
[3]
  IC50: 183 µM
[1]; read-out: IC50 hncNOS
  IC50: 24 µM
